From patent publication US12528767B2, “HDAC6 inhibitors and uses thereof” (Eikonizo Therapeutics, Inc., priority 2019, dated 2026)
Like-named read-outs stand apart in the source and are kept apart here.

Assays:
Full length Human HDAC1 = Full length Human HDAC1 (Homo sapiens, UniProt Q13547)
Full length Human HDAC6 = target: T1, Full length Human HDAC6 (Homo sapiens, UniProt Q9UBN7)
T1 sequence (Q9UBN7 1-1215): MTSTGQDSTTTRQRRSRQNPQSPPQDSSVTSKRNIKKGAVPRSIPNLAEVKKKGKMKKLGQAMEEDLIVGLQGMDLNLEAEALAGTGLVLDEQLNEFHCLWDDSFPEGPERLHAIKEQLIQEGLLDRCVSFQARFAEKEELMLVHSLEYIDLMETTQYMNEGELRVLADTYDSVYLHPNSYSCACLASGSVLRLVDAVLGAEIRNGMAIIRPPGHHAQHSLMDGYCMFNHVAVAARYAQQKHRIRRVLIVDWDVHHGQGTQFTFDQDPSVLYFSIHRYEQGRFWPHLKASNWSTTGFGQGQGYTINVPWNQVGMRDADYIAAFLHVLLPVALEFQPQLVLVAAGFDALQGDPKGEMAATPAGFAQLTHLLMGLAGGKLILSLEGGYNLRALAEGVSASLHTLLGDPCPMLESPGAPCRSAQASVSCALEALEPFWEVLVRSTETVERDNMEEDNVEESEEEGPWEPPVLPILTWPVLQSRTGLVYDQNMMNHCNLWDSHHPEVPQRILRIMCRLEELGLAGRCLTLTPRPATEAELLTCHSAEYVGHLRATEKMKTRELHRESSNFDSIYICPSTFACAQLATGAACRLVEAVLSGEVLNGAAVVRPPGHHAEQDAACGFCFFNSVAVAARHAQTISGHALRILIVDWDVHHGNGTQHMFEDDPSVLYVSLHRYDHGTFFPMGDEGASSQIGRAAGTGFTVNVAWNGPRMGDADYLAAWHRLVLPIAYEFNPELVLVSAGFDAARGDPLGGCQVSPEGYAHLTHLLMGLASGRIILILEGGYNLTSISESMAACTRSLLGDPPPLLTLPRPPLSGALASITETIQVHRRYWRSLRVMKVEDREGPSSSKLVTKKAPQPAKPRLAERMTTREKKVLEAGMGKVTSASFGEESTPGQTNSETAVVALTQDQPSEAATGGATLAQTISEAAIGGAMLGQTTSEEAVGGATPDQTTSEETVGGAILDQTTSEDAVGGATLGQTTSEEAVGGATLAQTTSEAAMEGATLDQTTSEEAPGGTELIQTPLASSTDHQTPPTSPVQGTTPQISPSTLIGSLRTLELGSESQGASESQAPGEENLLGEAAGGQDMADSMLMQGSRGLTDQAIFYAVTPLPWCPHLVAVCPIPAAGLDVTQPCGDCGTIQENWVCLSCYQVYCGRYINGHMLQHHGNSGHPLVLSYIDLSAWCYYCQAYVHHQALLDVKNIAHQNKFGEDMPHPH

Human HDAC7 aa 518-end = target: T2, Human HDAC7 aa 518-end (Homo sapiens, UniProt Q8WUI4)
T2 sequence (Q8WUI4 518-952 limits assumed): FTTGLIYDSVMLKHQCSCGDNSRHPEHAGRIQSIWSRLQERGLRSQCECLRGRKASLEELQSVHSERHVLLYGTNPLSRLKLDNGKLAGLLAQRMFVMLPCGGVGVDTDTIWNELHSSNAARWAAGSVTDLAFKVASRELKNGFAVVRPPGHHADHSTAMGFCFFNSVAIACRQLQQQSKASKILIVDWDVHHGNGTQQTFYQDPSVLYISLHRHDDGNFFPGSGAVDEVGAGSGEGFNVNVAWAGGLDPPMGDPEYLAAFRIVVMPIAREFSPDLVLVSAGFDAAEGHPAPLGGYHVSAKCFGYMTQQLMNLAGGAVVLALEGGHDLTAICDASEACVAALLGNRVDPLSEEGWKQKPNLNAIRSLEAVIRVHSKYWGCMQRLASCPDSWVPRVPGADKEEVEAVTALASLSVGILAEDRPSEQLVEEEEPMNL

Full length Human HDAC10 = target: T3, Full length Human HDAC10 (Homo sapiens, UniProt Q969S8)
T3 sequence (Q969S8 1-669): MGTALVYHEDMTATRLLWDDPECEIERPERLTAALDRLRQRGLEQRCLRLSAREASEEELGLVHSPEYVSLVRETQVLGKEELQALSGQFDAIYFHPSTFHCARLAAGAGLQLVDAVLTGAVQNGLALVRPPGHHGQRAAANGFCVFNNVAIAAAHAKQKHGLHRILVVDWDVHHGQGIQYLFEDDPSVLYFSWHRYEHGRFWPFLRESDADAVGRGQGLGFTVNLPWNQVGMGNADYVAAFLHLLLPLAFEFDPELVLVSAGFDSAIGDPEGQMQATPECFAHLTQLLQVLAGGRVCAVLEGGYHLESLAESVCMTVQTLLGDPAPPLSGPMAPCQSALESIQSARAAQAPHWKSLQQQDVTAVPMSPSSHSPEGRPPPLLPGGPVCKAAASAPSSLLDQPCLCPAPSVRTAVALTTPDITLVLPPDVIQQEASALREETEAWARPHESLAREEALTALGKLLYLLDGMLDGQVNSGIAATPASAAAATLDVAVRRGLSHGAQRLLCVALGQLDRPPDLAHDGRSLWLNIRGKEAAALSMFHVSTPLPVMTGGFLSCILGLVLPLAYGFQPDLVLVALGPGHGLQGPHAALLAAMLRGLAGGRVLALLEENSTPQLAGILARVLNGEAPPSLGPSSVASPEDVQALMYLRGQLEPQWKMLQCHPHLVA

Full length Human HDAC8 = target: T4, Full length Human HDAC8 (Homo sapiens, UniProt Q9BY41)
T4 sequence (Q9BY41 1-377): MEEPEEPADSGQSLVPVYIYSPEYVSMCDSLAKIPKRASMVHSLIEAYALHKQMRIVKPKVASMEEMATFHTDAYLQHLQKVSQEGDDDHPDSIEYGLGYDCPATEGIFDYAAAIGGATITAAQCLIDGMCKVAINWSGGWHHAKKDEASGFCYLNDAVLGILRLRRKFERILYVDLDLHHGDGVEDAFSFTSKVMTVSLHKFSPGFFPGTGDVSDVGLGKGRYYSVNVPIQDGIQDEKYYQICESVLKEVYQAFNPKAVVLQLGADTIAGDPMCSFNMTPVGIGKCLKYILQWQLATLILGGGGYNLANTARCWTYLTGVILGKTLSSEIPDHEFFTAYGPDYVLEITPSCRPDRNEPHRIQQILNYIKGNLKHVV

[1] = target: Human HDAC9 a.a. 604-1066 (Homo sapiens, UniProt Q9UKV0)
[2] = read-out: In vitro enzymatic IC50, HDAC Paralog 6, Table 2
[3] = read-out: In vitro enzymatic IC50, HDAC Paralog 8, Table 2

Chain of Human HDAC9 a.a. 604-1066 (Q9UKV0 604-1066 isoform Q9UKV0-5): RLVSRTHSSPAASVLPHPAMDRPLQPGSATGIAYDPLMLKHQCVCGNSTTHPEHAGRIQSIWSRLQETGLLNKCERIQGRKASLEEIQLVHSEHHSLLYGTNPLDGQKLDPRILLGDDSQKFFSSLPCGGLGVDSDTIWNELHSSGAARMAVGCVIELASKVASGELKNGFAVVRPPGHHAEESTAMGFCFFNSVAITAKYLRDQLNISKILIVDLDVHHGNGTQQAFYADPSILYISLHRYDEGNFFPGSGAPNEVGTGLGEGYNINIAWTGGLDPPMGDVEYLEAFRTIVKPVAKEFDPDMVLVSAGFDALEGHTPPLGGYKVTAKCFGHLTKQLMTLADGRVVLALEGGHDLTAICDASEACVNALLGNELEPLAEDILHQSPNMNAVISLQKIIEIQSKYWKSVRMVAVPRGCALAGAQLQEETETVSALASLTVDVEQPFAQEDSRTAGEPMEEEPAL
Chain of Full length Human HDAC1 (Q13547 whole entry): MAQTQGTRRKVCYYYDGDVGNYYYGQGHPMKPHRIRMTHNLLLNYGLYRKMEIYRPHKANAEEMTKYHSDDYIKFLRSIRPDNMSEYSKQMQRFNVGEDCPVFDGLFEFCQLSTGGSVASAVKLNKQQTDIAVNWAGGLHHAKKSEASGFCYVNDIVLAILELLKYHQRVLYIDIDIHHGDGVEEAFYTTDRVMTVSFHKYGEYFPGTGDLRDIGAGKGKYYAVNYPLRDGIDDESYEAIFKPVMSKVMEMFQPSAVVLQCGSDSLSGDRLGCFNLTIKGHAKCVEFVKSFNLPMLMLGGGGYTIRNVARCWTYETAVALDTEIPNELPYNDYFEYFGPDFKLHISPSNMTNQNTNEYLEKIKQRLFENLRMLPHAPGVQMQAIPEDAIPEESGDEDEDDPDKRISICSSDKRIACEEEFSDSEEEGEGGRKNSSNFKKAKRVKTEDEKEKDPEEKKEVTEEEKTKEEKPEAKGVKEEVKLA

IC50 (Full length Human HDAC1)	IC50 (Full length Human HDAC6)	IC50 (Human HDAC7 aa 518-end)	IC50 (Full length Human HDAC10)	IC50 (Full length Human HDAC8)	IC50 [1]	IC50 (Full length Human HDAC6; [2])	IC50 (Full length Human HDAC8; [3])	SMILES
10 to 100 µM	0.001 to 0.1 µM	1 to 10 µM	10 to 100 µM	1 to 10 µM	1 to 10 µM	–	–	O=C(NO)c1cc(F)c2c(c1)C[C@@H]1CCCCN1C2 (single isomer, unassigned) [compound 93]
> 100 µM	0.1 to 1 µM	1 to 10 µM	> 100 µM	1 to 10 µM	1 to 10 µM	–	–	O=C(NO)c1cc(F)c2c(c1)C[C@H]1CCCCN1C2 (single isomer, unassigned) [compound 94]
> 100 µM	0.001 to 0.1 µM	1 to 10 µM	> 100 µM	1 to 10 µM	10 to 100 µM	0.001 to 0.1 µM	1 to 10 µM	O=C(NO)c1ccc(CN2C[C@@H]3CC[C@H]2CO3)c(F)c1 (single isomer, unassigned) [compound 172]
10 to 100 µM	0.001 to 0.1 µM	1 to 10 µM	10 to 100 µM	1 to 10 µM	1 to 10 µM	–	–	O=C(NO)c1ccc(CN2C[C@H]3CC[C@@H]2CO3)c(F)c1 (single isomer, unassigned) [compound 173]
10 to 100 µM	0.001 to 0.1 µM	10 to 100 µM	10 to 100 µM	10 to 100 µM	> 100 µM	0.001 to 0.1 µM	10 to 100 µM	O=C(NO)c1cc(F)c2c(c1)CCN(C1CC3(CCCCC3)C1)C2 [compound 16]
–	0.001 to 0.1 µM	1 to 10 µM	10 to 100 µM	1 to 10 µM	–	0.001 to 0.1 µM	1 to 10 µM	O=C(NO)c1cc(F)c2c(c1)CCN(Cc1ccccc1)C2 [compound 32]
10 to 100 µM	0.001 to 0.1 µM	10 to 100 µM	10 to 100 µM	10 to 100 µM	10 to 100 µM	0.001 to 0.1 µM	10 to 100 µM	O=C(NO)c1cc(F)c2c(c1)CCN(CC13CC4CC(CC(C4)C1)C3)C2 [compound 34]
1 to 10 µM	0.001 to 0.1 µM	0.1 to 1 µM	1 to 10 µM	0.1 to 1 µM	0.1 to 1 µM	0.001 to 0.1 µM	0.1 to 1 µM	O=C(NO)c1ccc(CN2CC3CCC(C2)O3)c(F)c1 [compound 53]
10 to 100 µM	0.001 to 0.1 µM	1 to 10 µM	10 to 100 µM	0.1 to 1 µM	1 to 10 µM	0.001 to 0.1 µM	0.1 to 1 µM	O=C(NO)c1ccc(CN2CC3CCC2CO3)c(F)c1 (stereo not drawn) [compound 58]
–	0.001 to 0.1 µM	1 to 10 µM	10 to 100 µM	1 to 10 µM	–	0.001 to 0.1 µM	1 to 10 µM	O=C(NO)c1ccc(CN2CCC3(CCCCC3)C2)c(F)c1 [compound 75, 4-((2-Azaspiro[4.5]decan-2-yl)methyl)-3-fluoro-N-hydroxybenzamide]
10 to 100 µM	0.1 to 1 µM	10 to 100 µM	> 100 µM	1 to 10 µM	10 to 100 µM	0.1 to 1 µM	1 to 10 µM	O=C(NO)c1ccc2c(c1)CN1CCCCN1C2 [compound 106, N-hydroxy-1,2,3,4,6,11-hexahydropyridazino[1,2-b]phthalazine-8-carboxamide]

SMILES	IC50 (Full length Human HDAC1)	IC50 (Full length Human HDAC6)	IC50 (Human HDAC7 aa 518-end)	IC50 (Full length Human HDAC10)	IC50 (Full length Human HDAC8)	IC50 [1]	IC50 (Full length Human HDAC6; [2])	IC50 (Full length Human HDAC8; [3])
O=C(NO)c1cc(F)c2c(c1)CCN1CCC[C@@H]21 (single isomer, unassigned) [compound 79]	1 to 10 µM	0.001 to 0.1 µM	0.1 to 1 µM	10 to 100 µM	1 to 10 µM	0.1 to 1 µM	–	–
